Tested on: SARS-CoV-2
Experiment: microbe, parasite or virus in culture
Settings: Severe acute respiratory syndrome coronavirus 2, Vero C1008, 48 h

`COc1cccc(CCc2ccccc2OCC(CN(C)C)OC(=O)CCC(=O)O)c1` (configuration not stated) [SARPOGRELATE] showed an IC50 of over 20 µM and an IC50 (read-out: pIC50 (converted)) of over 20 µM.
Compound `C[C@@H](c1ccc2nccn2c1)n1nnc2ncc(-c3cnn(C)c3)nc21` [SAVOLITINIB] has an IC50 of over 20 µM and an IC50 (read-out: pIC50 (converted)) of over 20 µM.
`N#C[C@@H]1C[C@@H]2C[C@@H]2N1C(=O)[C@@H](N)C12CC3CC(CC(O)(C3)C1)C2` [SAXAGLIPTIN ANHYDROUS] was tested, and the IC50 was over 20 µM and the IC50 (read-out: pIC50 (converted)) was over 20 µM.
With `C[S+]([O-])c1ccc(-c2nc(-c3ccc(F)cc3)c(-c3ccncc3)[nH]2)cc1` (configuration not stated) [SB-203580] the IC50 was over 20 µM and the IC50 (read-out: pIC50 (converted)) was over 20 µM.
With `Cc1nc(C(=O)N2CCCC[C@H]2CNC(=O)c2cccc3occc23)c(-c2ccc(F)cc2)s1` [SB-649868] the IC50 was over 20 µM and the IC50 (read-out: pIC50 (converted)) was over 20 µM.
In the case of `CCCc1c(OCCCOc2ccc(C(C)=O)c(OC)c2CCC)ccc2c1OC(C(=O)O)CC2` (configuration not stated) [SC-41390], the IC50 is reported as over 20 µM and the IC50 (read-out: pIC50 (converted)) is reported as over 20 µM.
Work on `CN1CCc2cc(Cl)c(O)cc2[C@@H](c2ccccc2)C1` [SCH-23390] yielded an IC50 of over 20 µM and an IC50 (read-out: pIC50 (converted)) of over 20 µM.
With `CC(=O)N1CCC(=C2c3ccc(Cl)cc3CCc3cccnc32)CC1` [SCH-37370] the IC50 was over 20 µM and the IC50 (read-out: pIC50 (converted)) was over 20 µM.
Compound `Cn1cc(-c2cnn3c(N)c(Br)c([C@@H]4CCCNC4)nc23)cn1` [SCH-900776] has an IC50 of over 20 µM and an IC50 (read-out: pIC50 (converted)) of over 20 µM.
For `CN1[C@@H]2C[C@@H](OC(=O)[C@H](CO)c3ccccc3)C[C@H]1[C@@H]1O[C@@H]12` [SCOPOLAMINE], the IC50 was over 20 µM and the IC50 (read-out: pIC50 (converted)) was over 20 µM.
In the case of `COc1cc2ccc(=O)oc2cc1O` [SCOPOLETIN], the IC50 is reported as over 20 µM and the IC50 (read-out: pIC50 (converted)) is reported as over 20 µM.
In the case of `COc1cc2c(cc1O)[C@@H]1Cc3ccc(OC)c(O)c3CN1CC2` [SCOULERINE], the IC50 is reported as over 20 µM and the IC50 (read-out: pIC50 (converted)) is reported as over 20 µM.
Work on `O=C1c2cc(Cl)ccc2OC2CCON12` (configuration not stated) [SECLAZONE] yielded an IC50 of over 20 µM and an IC50 (read-out: pIC50 (converted)) of over 20 µM.
`Cc1ncc([N+](=O)[O-])n1CC(C)O` (configuration not stated) [SECNIDAZOLE] gave an IC50 of over 20 µM and an IC50 (read-out: pIC50 (converted)) of over 20 µM.
`C=CCC1(C(C)CCC)C(=O)NC(=O)NC1=O` (configuration not stated) [SECOBARBITAL] gave an IC50 of over 20 µM and an IC50 (read-out: pIC50 (converted)) of over 20 µM.
In the case of `O=C1C=C2C=C[C@@H]3C[C@@]2(O1)[C@H]1CCCCN31` [SECURININE], the IC50 is reported as over 20 µM and the IC50 (read-out: pIC50 (converted)) is reported as over 20 µM.
Work on `CCCC[C@](C)(CO)Nc1nc(N)nc2cc(F)cnc12` [SELGANTOLIMOD] yielded an IC50 of over 20 µM and an IC50 (read-out: pIC50 (converted)) of over 20 µM.
Compound `CC[C@H](CO)Nc1nc(NCc2ccccc2)c2ncn(C(C)C)c2n1` [SELICICLIB] has an IC50 of over 20 µM and an IC50 (read-out: pIC50 (converted)) of over 20 µM.
`O=C(/C=C\n1cnc(-c2cc(C(F)(F)F)cc(C(F)(F)F)c2)n1)NNc1cnccn1` [SELINEXOR] gave an IC50 of over 20 µM and an IC50 (read-out: pIC50 (converted)) of over 20 µM.
Work on `Cn1cnc2c(F)c(Nc3ccc(Br)cc3Cl)c(C(=O)NOCCO)cc21` [SELUMETINIB] yielded an IC50 of over 20 µM and an IC50 (read-out: pIC50 (converted)) of over 20 µM.
`C=C1C/C(=C/C)C(=O)O[C@@H]2CCN3CC=C(COC(=O)[C@]1(C)O)[C@H]23` [SENECIPHYLLINE] gave an IC50 of over 20 µM and an IC50 (read-out: pIC50 (converted)) of over 20 µM.
`NC(=O)C(c1ccccc1)(c1ccc(F)cc1)c1ccc(F)cc1` [SENICAPOC] showed an IC50 of over 20 µM and an IC50 (read-out: pIC50 (converted)) of over 20 µM.
`C[C@H](O)C(=O)C1=Nc2c(nc(N)[nH]c2=O)NC1` [SEPIAPTERIN] was tested, and the IC50 was over 20 µM and the IC50 (read-out: pIC50 (converted)) was over 20 µM.
`CC1=C(C)C(=O)C(C(CCCCCC(=O)O)c2ccccc2)=C(C)C1=O` (configuration not stated) [SERATRODAST] was tested, and the IC50 was over 20 µM and the IC50 (read-out: pIC50 (converted)) was over 20 µM.
For `NCCc1c[nH]c2ccc(O)cc12` [SEROTONIN], the IC50 was over 20 µM and the IC50 (read-out: pIC50 (converted)) was over 20 µM.
With `Clc1ccc(C(Cn2ccnc2)OCc2csc3c(Cl)cccc23)c(Cl)c1` (configuration not stated) [SERTACONAZOLE] the IC50 was over 20 µM and the IC50 (read-out: pIC50 (converted)) was over 20 µM.
In the case of `O=C1NCCN1CCN1CCC(c2cn(-c3ccc(F)cc3)c3ccc(Cl)cc23)CC1` [SERTINDOLE], the IC50 is reported as over 20 µM and the IC50 (read-out: pIC50 (converted)) is reported as over 20 µM.
In the case of `c1cc2c(cc1[C@H]1OC[C@H]3[C@@H]1CO[C@@H]3c1ccc3c(c1)OCO3)OCO2` [SESAMIN], the IC50 is reported as over 20 µM and the IC50 (read-out: pIC50 (converted)) is reported as over 20 µM.
For `O=C(O)Cn1c2c(c3cc(F)ccc31)CN(C(=O)c1cccc3ccccc13)CC2` [SETIPIPRANT], the IC50 was over 20 µM and the IC50 (read-out: pIC50 (converted)) was over 20 µM.
Compound `Cc1nc2n(c(=O)c1CCN1CCC(C(=O)c3ccc(F)cc3)CC1)CCS2` [SETOPERONE] has an IC50 of over 20 µM and an IC50 (read-out: pIC50 (converted)) of over 20 µM.
`CC(C)[C@](O)(c1ccc2cc(OC(F)F)c(OC(F)F)cc2c1)c1c[nH]nn1` [SEVITERONEL] was tested, and the IC50 was over 20 µM and the IC50 (read-out: pIC50 (converted)) was over 20 µM.
Work on `O=C(O)C1=C[C@@H](O)[C@@H](O)[C@H](O)C1` [SHIKIMIC ACID] yielded an IC50 of over 20 µM and an IC50 (read-out: pIC50 (converted)) of over 20 µM.
For `CC(C)=CC[C@@H](O)C1=CC(=O)c2c(O)ccc(O)c2C1=O` [SHIKONIN], the IC50 was over 20 µM and the IC50 (read-out: pIC50 (converted)) was over 20 µM.
`CC(C)CC(N(C)C)C1(c2ccc(Cl)cc2)CCC1` (configuration not stated) [SIBUTRAMINE] showed an IC50 of over 20 µM and an IC50 (read-out: pIC50 (converted)) of over 20 µM.
Work on `C[C@H](Cc1cc2c(c(C(N)=O)c1)N(CCCO)CC2)NCCOc1ccccc1OCC(F)(F)F` [SILODOSIN] yielded an IC50 of over 20 µM and an IC50 (read-out: pIC50 (converted)) of over 20 µM.
`COc1cc([C@H]2Oc3cc([C@H]4Oc5cc(O)cc(O)c5C(=O)[C@@H]4O)ccc3O[C@@H]2CO)ccc1O` [SILYBIN A] gave an IC50 of over 20 µM and an IC50 (read-out: pIC50 (converted)) of over 20 µM.

Reference: ChEMBL document CHEMBL4651402, “Screening of ~5500 FDA-approved drugs and clinical candidates for anti-SARS-CoV-2 activity” (2021)
